Data taken from ChEMBL document CHEMBL1201862, “PubChem BioAssay data set” (2004).
Where a name gives a salt, the structure may show the parent alone.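 Briefly, cells in 96-well plates were exposed to five compound concentrations for 48 h, and endpoints were estimated by linear interpolation. GI50 marks 50% less growth.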 Calls of active or inactive are those of the source. No stated cut-off is given here; in the data, active = GI50 up to about 1.1 µM and inactive = higher.

Legend:
Test in all cases: NCI anticancer screen, dose series, 48 h
[1] = system: Malme-3M
[2] = system: HCT-15
[3] = system: SW-620
[4] = system: COLO 205
[5] = system: A549
[6] = system: TK-10
[7] = system: OVCAR-3
[8] = system: M14
[9] = system: OVCAR-8
[10] = system: EKVX
[11] = system: OVCAR-5
[12] = system: U-251
[13] = system: UACC-62
[14] = system: SNB-19
[15] = system: IGROV-1
[16] = system: LOX IMVI
[17] = system: CCRF-CEM
[18] = system: NCI-H23
[19] = system: SK-OV-3
[20] = system: KM12

Compound	GI50 [1]	GI50 [2] [µM]	GI50 [3]	GI50 [4]	GI50 [5]	GI50 [6]	GI50 [7]	GI50 [8]	GI50 [9]	GI50 [10]	GI50 [11]	GI50 [12]	GI50 [13]	GI50 [14]	GI50 [15]	GI50 [16]	GI50 [17]	GI50 [18]	GI50 [19]	GI50 [20]
Cc1ccnn1CCc1ccc(Cl)cc1Cl	30.1 µM (inactive)	36.5	54.8 µM (inactive)	35 µM (inactive)	27.6 µM (inactive)	20.8 µM (inactive)	20.5 µM (inactive)	24.4 µM (inactive)	27.9 µM (inactive)	2.31 µM (inactive)	32.4 µM (inactive)	29.1 µM (inactive)	8.73 µM (inactive)	28.6 µM (inactive)	29.6 µM (inactive)	33 µM (inactive)	25.4 µM (inactive)	24.8 µM (inactive)	65.9 µM (inactive)	27 µM (inactive)
CCOP(=O)(OCC)C(Nc1ccc(C(=O)O)cc1)c1ccc(C(Nc2ccc(C(=O)O)cc2)P(=O)(OCC)OCC)cc1 (stereo not given)	> 100 µM (inactive)	> 100	> 100 µM (inactive)	> 100 µM (inactive)	> 100 µM (inactive)	> 100 µM (inactive)	> 100 µM (inactive)	> 100 µM (inactive)	> 100 µM (inactive)	> 100 µM (inactive)	> 100 µM (inactive)	> 100 µM (inactive)	> 100 µM (inactive)	> 100 µM (inactive)	> 100 µM (inactive)	> 100 µM (inactive)	> 100 µM (inactive)	> 100 µM (inactive)	> 100 µM (inactive)	> 100 µM (inactive)
O=C(CC1Sc2ccccc2NC1=O)Nc1ccc(Cl)cc1 (stereo not given)	46.2 µM (inactive)	75.9	> 100 µM (inactive)	> 100 µM (inactive)	91.8 µM (inactive)	> 100 µM (inactive)	> 100 µM (inactive)	92.5 µM (inactive)	37.9 µM (inactive)	> 100 µM (inactive)	> 100 µM (inactive)	> 100 µM (inactive)	23.9 µM (inactive)	> 100 µM (inactive)	86.3 µM (inactive)	> 100 µM (inactive)	> 100 µM (inactive)	46.2 µM (inactive)	> 100 µM (inactive)	> 100 µM (inactive)
COC(=O)C1Cc2c([nH]c3ccccc23)C=N1 (stereo not given)	> 100 µM (inactive)	> 100	> 100 µM (inactive)	> 100 µM (inactive)	> 100 µM (inactive)	59.3 µM (inactive)	> 100 µM (inactive)	> 100 µM (inactive)	> 100 µM (inactive)	> 100 µM (inactive)	> 100 µM (inactive)	> 100 µM (inactive)	> 100 µM (inactive)	> 100 µM (inactive)	> 100 µM (inactive)	51.8 µM (inactive)	> 100 µM (inactive)	> 100 µM (inactive)	> 100 µM (inactive)	94.2 µM (inactive)
CCCNC(C#N)c1ccc(C(C#N)NCCC)cc1 (stereo not given)	> 100 µM (inactive)	> 100	> 100 µM (inactive)	81.3 µM (inactive)	> 100 µM (inactive)	> 100 µM (inactive)	> 100 µM (inactive)	> 100 µM (inactive)	29.9 µM (inactive)	> 100 µM (inactive)	> 100 µM (inactive)	> 100 µM (inactive)	> 100 µM (inactive)	> 100 µM (inactive)	> 100 µM (inactive)	> 100 µM (inactive)	24.4 µM (inactive)	> 100 µM (inactive)	> 100 µM (inactive)	> 100 µM (inactive)
COc1cc(OC2OC(CO)C(O)C(O)C2O)c2c(O)c3c(=O)cc(C)oc3cc2c1 (stereo not given)	67.1 µM (inactive)	> 100	> 100 µM (inactive)	> 100 µM (inactive)	> 100 µM (inactive)	> 100 µM (inactive)	> 100 µM (inactive)	> 100 µM (inactive)	> 100 µM (inactive)	> 100 µM (inactive)	> 100 µM (inactive)	> 100 µM (inactive)	> 100 µM (inactive)	> 100 µM (inactive)	> 100 µM (inactive)	> 100 µM (inactive)	> 100 µM (inactive)	> 100 µM (inactive)	> 100 µM (inactive)	> 100 µM (inactive)
OC[P+](CO)(CO)C12CC3CC(CC(C3)C1)C2	> 100 µM (inactive)	> 89.5	> 100 µM (inactive)	> 100 µM (inactive)	> 100 µM (inactive)	> 100 µM (inactive)	> 87.9 µM (inactive)	> 100 µM (inactive)	> 100 µM (inactive)	> 100 µM (inactive)	> 100 µM (inactive)	> 100 µM (inactive)	> 100 µM (inactive)	87.1 µM (inactive)	4.85 µM (inactive)	4.67 µM (inactive)	4.9 µM (inactive)	> 88.3 µM (inactive)	> 100 µM (inactive)	> 100 µM (inactive)
COc1ccc2c(c1)Cc1c(NCCN(C)C)ccc(C(=O)NCCCN(C)CCCNC(=O)c3ccc(NCCN(C)C)c4c3Nc3ccc(OC)cc3C4)c1N2	< 0.01 µM (active)	0.728	< 0.0158 µM (active)	< 0.01 µM (active)	< 0.01 µM (active)	0.0724 µM (active)	< 0.0187 µM (active)	0.15 µM (active)	< 0.01 µM (active)	0.116 µM (active)	< 0.0248 µM (active)	< 0.01 µM (active)	< 0.0228 µM (active)	< 0.01 µM (active)	< 0.01 µM (active)	< 0.01 µM (active)	< 0.0393 µM (active)	< 0.0212 µM (active)	< 0.01 µM (active)	< 0.01 µM (active)
CCOC(=O)c1csc(NC(=O)C(C)N2CCCCC2)n1 (stereo not given)	> 100 µM (inactive)	> 100	> 100 µM (inactive)	> 100 µM (inactive)	> 100 µM (inactive)	> 100 µM (inactive)	> 100 µM (inactive)	> 100 µM (inactive)	> 100 µM (inactive)	> 100 µM (inactive)	> 100 µM (inactive)	> 100 µM (inactive)	> 100 µM (inactive)	> 100 µM (inactive)	> 100 µM (inactive)	> 100 µM (inactive)	> 100 µM (inactive)	> 100 µM (inactive)	> 100 µM (inactive)	> 100 µM (inactive)
CC1=C(C(=O)NCc2ccccc2)C(c2ccco2)C(C(=O)NCc2ccccc2)=C(C)N1	> 100 µM (inactive)	52.8	50.9 µM (inactive)	> 100 µM (inactive)	> 100 µM (inactive)	57.4 µM (inactive)	> 100 µM (inactive)	57 µM (inactive)	78.5 µM (inactive)	> 100 µM (inactive)	> 100 µM (inactive)	> 100 µM (inactive)	17.3 µM (inactive)	> 100 µM (inactive)	> 100 µM (inactive)	77.3 µM (inactive)	45.8 µM (inactive)	> 100 µM (inactive)	> 100 µM (inactive)	33.8 µM (inactive)
CCCCOC(=O)CC(CC(=O)OCCCC)(OC(C)=O)C(=O)OCCCC [ACETYLTRIBUTYL CITRATE]	197 µM (inactive)	> 177	> 130 µM (inactive)	60.1 µM (inactive)	96.8 µM (inactive)	> 200 µM (inactive)	> 200 µM (inactive)	> 200 µM (inactive)	> 190 µM (inactive)	> 101 µM (inactive)	> 200 µM (inactive)	> 200 µM (inactive)	117 µM (inactive)	> 200 µM (inactive)	> 200 µM (inactive)	150 µM (inactive)	76.9 µM (inactive)	60.8 µM (inactive)	> 200 µM (inactive)	> 112 µM (inactive)
